Consider eleven compounds from patent EP4389751A1, “HETEROCYCLIC COMPOUNDS AND USES THEREOF” (Kumquat Biosciences Inc., priority 2021, dated 2024).

One may read the IC50 as the concentration that gives 50% inhibition.

In assay [1] the target is T1, KRAS protein (His-tagged GDP-loaded G12S 1-169) (Homo sapiens, UniProt P01116, G12S).
T1 construct: His-tagged GDP-loaded G12S 1-169
In words: Covalent modification of KRAS protein, intact-protein LC-MS. Format: binding. As to conditions: 24hrs at room temperature, KRAS protein ~2 µM. On the procedure: Test compounds are prepared as 10 mM stock solutions in DMSO (Fisher cat#BP231-100). KRAS protein (His-tagged GDP-loaded wildtype 1-169, His-tagged GDP-loaded G12S 1-169 or His-tagged GDP-loaded G12D 1-169) is diluted to ~2 µM in appropriate buffer (e.g., a Hepes buffer at physiological conditions). For testing KRAS modification, compounds are diluted to 50X final test concentration in DMSO in 96-well storage plates. 2 µl of the diluted 50X compounds are added to appropriate wells in the PCR plate (Fisher cat#AB-0800). […] of the stock protein solution is added to each well of the 96-well PCR plate. Reactions are mixed carefully. The plate is sealed well with aluminum plate seal, and stored in drawer at room temperature for 24hrs. 5 µl of 2% formic acid (Fisher cat#A1 17-50) in MilliQ H2O is then added to each well followed by mixing with a pipette. The plate is then resealed with aluminum seal and stored until mass spectrometry analysis.
The extent of covalent modification of KRAS proteins was determined by liquid chromatography electrospray mass spectrometry analysis of the intact proteins on a Thermo Q-Exactive Plus mass spectrometer. 20 µl of sample was injected onto a bioZen 3.6 µm Intact C4 column (Phenomenex cat#00B-4767-AN) placed in a column oven set to 40°C and separated using a suitable LC gradient from -20% to ~60% solvent B. Solvent A was 0.1% formic acid and solvent B was 0.1% formic acid in acetonitrile. HESI source settings were set to 40, 5 and 1 for the sheath, auxiliary and sweep gas flow, respectively. The spray voltage was 4 kV, and the capillary temperature was 320°C. S-lens RF level was 50 and auxiliary gas heater temperature was set to 200°C. The mass spectrometry was acquired using a scan range from 650 to 1750 m/z using positive polarity at a mass resolution of 70,000, AGC target of 1e6 ions and maximum injection time of 250ms. The recorded protein mass spectrum was deconvoluted from the raw data file using Protein Deconvolution v4.0 (Thermo). The protein mass and adduct masses were exported with their peak intensities. The peak intensities for the unmodified and modified protein were used to calculate the percent covalent modification of the KRAS protein based on the following equation: %KRAS protein modification = ((KRAS-compound) / (KRAS) + (KRAS-Compound)) *100.

A further assay addresses T2, K-Ras G12S (Homo sapiens, UniProt P01116, G12S).
T2 construct: made in house; host or cells: E. coli (e.g., BL21 (DE3))
Briefly: HTRF assay of the K-Ras / SOS1 interaction. As to conditions: IC50 (against K-Ras G12D) to IC50 (against K-Ras G12S). Format: biochemical. Put shortly: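 GST-K-Ras G12S with anti-GST-Eu donor and His-hSOS1 with anti-6His-XL665 acceptor in ~5 mM HEPES pH 7.4, ~150 mM NaCl, 1 mM DTT, 0.05% BSA, 0.0025% Igepal. Read after ~10 min or longer; IC50 from 665/620 nm ratio, duplicates at 10 µM down to 0.01 µM.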

A further assay deals with GP2D cells. In words: Cell proliferation assay (CellTiter-Glo), K-Ras G12D cells. The assay is classed as cell-based. As to conditions: GP2D cells (K-Ras G12D); read-out: Inhibition of GP2D Cells (IC50). Summed up:
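GP2D (K-Ras G12D) cells seeded in DMEM with 2 mM glutamine and 10% FBS, then dosed next day with a dilution series (e.g., 9-point 3-fold). Viability read by CellTiter-Glo luminescence after about 5 days. IC50 from four-parameter fit.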
For orientation: ATP-based viability assays read luminescence as a measure of living cells.

With `CN1CCC[C@H]1COc1nc(N2CCOC3(CN(C(=O)n4cncn4)C3)C2)c2cc(Cl)c(-c3ccc(F)c4sc(N)c(C#N)c34)c(F)c2n1` [Compound A182, 4-(4-(2-(1H-1,2,4-triazole-1-carbonyl)-5-oxa-2,8-diazaspiro[3.5]nonan-8-yl)-6-chloro-8-fluoro-2-(((S)-1-methylpyrrolidin-2-yl)methoxy)quinazolin-7-yl)-2-amino-7-fluorobenzo[b]thiophene-3-carbonitrile], the “% G12S Modification at 24 hr.” value in assay [1] is “++ (++ indicates between about 1%- 20% labelling)”. Further, the “Ratio of IC50 KRAS G12D vs. IC50 KRAS G12S” value (“Ratio” for short) on K-Ras G12S was “A (A: indicates that the ratio of IC50 against KrasG12D vs. IC50 against KrasG12S is 1-fold or greater)”.

As for `Nc1nc2c(-c3c(Cl)cc4c(N5CCC6(CCN(C(=O)n7cncn7)CC6)C5)nc(OC[C@@]56CCCN5C[C@H](F)C6)nc4c3F)ccc(F)c2s1` [Compound A198, (2-(7-(2-amino-7-fluorobenzo[d]thiazol-4-yl)-6-chloro-8-fluoro-2-(((2R,7aS)-2-fluorotetrahydro-1H-pyrrolizin-7a(5H)-yl)methoxy)quinazolin-4-yl)-2,8-diazaspiro[4.5]decan-8-yl)(1H-1,2,4-triazol-1-yl)methanone], the “% G12S Modification at 24 hr.” value in assay [1] is “+++ (+++ indicates greater than 20% labelling)”. Moreover, the “Ratio” value at K-Ras G12S is “A (A: indicates that the ratio of IC50 against KrasG12D vs. IC50 against KrasG12S is 1-fold or greater)”.

Turning to `Nc1nc2c(-c3c(Cl)cc4c(N5CCC6(CN(C(=O)n7cncn7)CCO6)C5)nc(OC[C@@]56CCCN5C[C@H](F)C6)nc4c3F)ccc(F)c2s1` (stereo partly drawn) [Compound A202, (2-(7-(2-amino-7-fluorobenzo[d]thiazol-4-yl)-6-chloro-8-fluoro-2-(((2R,7aS)-2-fluorotetrahydro-1H-pyrrolizin-7a(5H)-yl)methoxy)quinazolm-4-yl)-6-oxa-2,9-diazaspiro[4.5]decan-9-yl)(1H-1,2,4-triazol-1-yl)methanone], in assay [1], the “% G12S Modification at 24 hr.” value is on record as “+++ (+++ indicates greater than 20% labelling)”. For the same compound, the IC50 with GP2D cells was 1 to 10 µM.

Regarding `CC1(C)CN(c2nc(OC[C@@]34CCCN3C[C@H](F)C4)nc3c(F)c(-c4ccc(F)c5sc(N)nc45)c(Cl)cc23)CC2(CN(C(=O)n3cncn3)C2)O1` [Compound A212, (8-(7-(2-amino-7-fluorobenzo[d]thiazol-4-yl)-6-chloro-8-fluoro-2-(((2R,7aS)-2-fluorotetrahydro-1H-pyrrolizin-7a(5H)-yl)methoxy)quinazolin-4-yl)-6,6-dimethyl-5-oxa-2,8-diazaspiro[3.5]nonan-2-yl)(1H-1,2,4-triazol-1-yl)methanone], the “% G12S Modification at 24 hr.” value in assay [1] is given as “+++ (+++ indicates greater than 20% labelling)”. Besides, in the assay on GP2D cells, the IC50 was 1 to 10 µM.

For the compound `N#Cc1c(N)sc2c(F)ccc(-c3c(Cl)cc4c(O[C@@H]5CCN(C(=O)n6cncn6)C5)nc(OCC56CCCN5C[C@H](F)C6)nc4c3F)c12` (stereo partly drawn) [Compound A213, 4-(4-(((R)-1-(1H-1,2,4-triazole-1-carbonyl)pyrrolidin-3-yl)oxy)-6-chloro-8-fluoro-2-(((2R)-2-fluorotetrahydro-1H-pyrrolizin-7a(5H)-yl)methoxy)quinazolin-7-yl)-2-amino-7-fluorobenzo[b]thiophene-3-carbonitrile], the “% G12S Modification at 24 hr.” value in assay [1] is listed as “++ (++ indicates between about 1%- 20% labelling)”. Moreover, the “Ratio” value on K-Ras G12S is recorded as “A (A: indicates that the ratio of IC50 against KrasG12D vs. IC50 against KrasG12S is 1-fold or greater)”.

Consider `Nc1nc2c(-c3c(Cl)cc4c(N5CCC6(CC5)CN(C(=O)n5cncn5)CCO6)nc(OC[C@@]56CCCN5C[C@H](F)C6)nc4c3F)ccc(F)c2s1` [Compound A225, (9-(7-(2-amino-7-fluorobenzo[d]thiazol-4-yl)-6-chloro-8-fluoro-2-(((2R,7aS)-2-fluorotetrahydro-1H-pyrrolizin-7a(5H)-yl)methoxy)quinazolin-4-yl)-1-oxa-4,9-diazaspiro [5.5]undecan-4-yl)(1H-1,2,4-triazol-1-yl)methanone], for which the “% G12S Modification at 24 hr.” value in assay [1] is given as “++ (++ indicates between about 1%- 20% labelling)”. In addition, the “Ratio” value at K-Ras G12S was “A (A: indicates that the ratio of IC50 against KrasG12D vs. IC50 against KrasG12S is 1-fold or greater)”.

On to `N#Cc1cnn(C(=O)N2CCCN(c3nc(OC[C@@]45CCCN4C[C@H](F)C5)nc4c(F)c(-c5ccc(F)c6sc(N)nc56)c(Cl)cc34)CC2)c1` [Compound A231, 1-(4-(7-(2-amino-7-fluorobenzo[d]thiazol-4-yl)-6-chloro-8-fluoro-2-(((2R,7aS)-2-fluorotetrahydro-1H-pyrrolizin-7a(5H)-yl)methoxy)quinazolin-4-yl)-1,4-diazepane-1-carbonyl)-1H-pyrazole-4-carbonitrile], for which the “% G12S Modification at 24 hr.” value in assay [1] is “++ (++ indicates between about 1%- 20% labelling)”. In addition, on K-Ras G12S, the “Ratio” value is recorded as “A (A: indicates that the ratio of IC50 against KrasG12D vs. IC50 against KrasG12S is 1-fold or greater)”.

Turning to `N#Cc1nccn1C(=O)N1CC2CN(c3nc(OC[C@@]45CCCN4C[C@H](F)C5)nc4c(F)c(-c5ccc(F)c6sc(N)nc56)c(Cl)cc34)CC2C1` (stereo partly drawn) [Compound A236, 1-(5-(7-(2-amino-7-fluorobenzo[d]thiazol-4-yl)-6-chloro-8-fluoro-2-(((2R,7aS)-2-fluorotetrahydro-1H-pyrrolizin-7a(5H)-yl)methoxy)quinazolin-4-yl)octahydropyrrolo[3,4-c]pyrrole-2-carbonyl)-1H-imidazole-2-carbonitrile], in assay [1], the “% G12S Modification at 24 hr.” value is listed as “++ (++ indicates between about 1%- 20% labelling)”. For the same compound, on K-Ras G12S, the “Ratio” value was “A (A: indicates that the ratio of IC50 against KrasG12D vs. IC50 against KrasG12S is 1-fold or greater)”.

As for `N#Cc1c(N)sc2c(F)ccc(-c3c(Cl)cc4c(N5CC(F)(F)C6CN(C(=O)n7cncn7)CCC65)nc(OC[C@@]56CCCN5C[C@H](F)C6)nc4c3F)c12` (stereo partly drawn) [Compound A263, 2-amino-4-(6-chloro-4-(3,3-difluoro-5-(1H-1,2,4-triazole-1-carbonyl)octahydro-1H-pyrrolo[3,2-c]pyridin-1-yl)-8-fluoro-2-(((2R,7aS)-2-fluorotetrahydro-1H-pyrrolizin-7a(5H)-yl)methoxy)quinazolm-7-yl)-7-fluorobenzo[b]thiophene-3-carbonitrile], the “% G12S Modification at 24 hr.” value in assay [1] is given as “++ (++ indicates between about 1%- 20% labelling)”. The “Ratio” value at K-Ras G12S is listed as “A (A: indicates that the ratio of IC50 against KrasG12D vs. IC50 against KrasG12S is 1-fold or greater)”.

With `N#Cc1c(N)sc2c(F)ccc(-c3c(Cl)cc4c(N5CC6CCCN(C(=O)n7cncn7)C6C5)nc(OC[C@@]56CCCN5C[C@H](F)C6)nc4c3F)c12` (stereo partly drawn) [Compound A284, 4-(4-(1-(1H-1,2,4-triazole-1-carbonyl)octahydro-6H-pyrrolo[3,4-b]pyridin-6-yl)-6-chloro-8-fluoro-2-(((2R,7aS)-2-fluorotetrahydro-1H-pyrrolizin-7a(5H)-yl)methoxy)quinazolin-7-yl)-2-amino-7-fluorobenzo[b]thiophene-3-carbonitrile], the “% G12S Modification at 24 hr.” value in assay [1] was “+++ (+++ indicates greater than 20% labelling)”. Besides, the “Ratio” value on K-Ras G12S is “A (A: indicates that the ratio of IC50 against KrasG12D vs. IC50 against KrasG12S is 1-fold or greater)”.

For the compound `Cc1ncn(C(=O)N2CCCC(Oc3nc(OC[C@@]45CCCN4C[C@H](F)C5)nc4c(F)c(-c5ccc(F)c6sc(N)c(C#N)c56)c(Cl)cc34)C2)n1` (stereo partly drawn) [Compound A302, 2-amino-4-(6-chloro-8-fluoro-2-(((2R,7aS)-2-fluorotetrahydro-1H-pyrrolizin-7a(5H)-yl)methoxy)-4-((1-(3-methyl-1H-1,2,4-triazole-1-carbonyl)piperidin-3-yl)oxy)quinazolin-7-yl)-7-fluorobenzo[b]thiophene-3-carbonitrile], in assay [1], the “% G12S Modification at 24 hr.” value was “++ (++ indicates between about 1%- 20% labelling)”. Besides, the “Ratio” value on K-Ras G12S is given as “A (A: indicates that the ratio of IC50 against KrasG12D vs. IC50 against KrasG12S is 1-fold or greater)”.
